Reference: patent publication US9963456B2, “Pyrrolopyrimidine compound or salt thereof and compositions containing the pyrrolopyrimidine compound or salt thereof” (TAIHO PHARMACEUTICAL CO., LTD., priority 2014, dated 2018)

Target: NAE (heterodimer of APPBP1 and UBA3) (Homo sapiens (Human), UniProt Q8TBC4)
Experiment: Nedd8 conjugation inhibitory activity (AlphaScreen assay)
Type: biochemical
Settings: purified NAE, GST-UBC12, Biotin-Nedd8, ATP

NAE (heterodimer of APPBP1 and UBA3), sequence (Q8TBC4 whole entry): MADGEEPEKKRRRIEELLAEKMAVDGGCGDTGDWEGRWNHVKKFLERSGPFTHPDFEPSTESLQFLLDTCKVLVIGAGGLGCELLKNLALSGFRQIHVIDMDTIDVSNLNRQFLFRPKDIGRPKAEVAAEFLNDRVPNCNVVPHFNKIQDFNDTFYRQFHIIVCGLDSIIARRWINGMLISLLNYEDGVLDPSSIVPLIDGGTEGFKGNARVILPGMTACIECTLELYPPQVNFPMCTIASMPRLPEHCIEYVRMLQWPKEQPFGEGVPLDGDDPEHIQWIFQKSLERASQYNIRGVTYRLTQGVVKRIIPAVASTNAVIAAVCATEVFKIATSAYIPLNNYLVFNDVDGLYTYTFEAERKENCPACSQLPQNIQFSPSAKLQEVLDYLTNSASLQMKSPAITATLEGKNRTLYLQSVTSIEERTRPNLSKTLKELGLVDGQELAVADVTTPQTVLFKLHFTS
NAE (heterodimer of APPBP1 and UBA3), sequence (Q13564 whole entry partner): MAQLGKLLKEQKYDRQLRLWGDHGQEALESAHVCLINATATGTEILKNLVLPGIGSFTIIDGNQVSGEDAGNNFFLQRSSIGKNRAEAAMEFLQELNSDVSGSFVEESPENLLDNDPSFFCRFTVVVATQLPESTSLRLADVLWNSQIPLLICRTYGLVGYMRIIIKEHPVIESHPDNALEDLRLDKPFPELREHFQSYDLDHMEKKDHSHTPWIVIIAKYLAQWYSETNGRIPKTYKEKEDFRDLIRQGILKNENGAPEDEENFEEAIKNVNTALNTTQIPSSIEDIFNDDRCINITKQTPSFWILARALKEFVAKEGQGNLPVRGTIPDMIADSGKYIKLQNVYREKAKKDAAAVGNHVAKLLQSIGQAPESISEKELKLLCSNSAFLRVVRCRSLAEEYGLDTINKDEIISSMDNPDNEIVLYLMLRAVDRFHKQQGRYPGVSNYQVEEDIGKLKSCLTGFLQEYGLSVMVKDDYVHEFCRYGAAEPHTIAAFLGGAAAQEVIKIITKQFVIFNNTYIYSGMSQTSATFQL

`Nc1ncnc2c1c(C#Cc1ccnc3ccccc13)cn2[C@@H]1O[C@H](CNS(N)(=O)=O)[C@@H](O)[C@H]1O` [Example 8, 4-[2-[4-Amino-7-[(2R,3R,4S,5R)-3,4-dihydroxy-5-[(sulfamoylamino)methyl]tetrahydrofuran-2-yl]pyrrolo[2,3-d]pyrimidin-5-yl]ethynyl]quinoline] gave an IC50 of 0.029 µM.

For `Nc1ncnc2c1c(C#Cc1nccc3ccccc13)cn2[C@@H]1O[C@H](CNS(N)(=O)=O)[C@@H](O)[C@H]1O` [Example 11, 1-[2-[4-Amino-7-[(2R,3R,4S,5R)-3,4-dihydroxy-5-[(sulfamoylamino)methyl]tetrahydrofuran-2-yl]pyrrolo[2,3-d]pyrimidin-5-yl]ethynyl]isoquinoline], the IC50 was 0.0078 µM.

Work on `COc1cccc(OC)c1C#Cc1cn([C@@H]2O[C@H](CNS(N)(=O)=O)[C@@H](O)[C@H]2O)c2ncnc(N)c12` [Example 16, 4-Amino-7-[(2R,3R,4S,5R)-3,4-dihydroxy-5-[(sulfamoylamino)methyl]tetrahydrofuran-2-yl]-5-[2-(2,6-dimethoxyphenyl)ethynyl]pyrrolo[2,3-d]pyrimidine] yielded an IC50 of 0.0096 µM.

`Nc1ncnc2c1c(C#Cc1cccc3cccnc13)cn2[C@@H]1O[C@H](CNS(N)(=O)=O)[C@@H](O)[C@H]1O` [Example 17, 8-[2-[4-Amino-7-[(2R,3R,4S,5R)-3,4-dihydroxy-5-[(sulfamoylamino)methyl]tetrahydrofuran-2-yl]pyrrolo[2,3-d]pyrimidin-5-yl]ethynyl]quinoline] was tested, and the IC50 was 0.0054 µM.

`Nc1ncnc2c1c(C#Cc1ccccc1OC(F)F)cn2[C@@H]1O[C@H](CNS(N)(=O)=O)[C@@H](O)[C@H]1O` [Example 18, 4-Amino-5-[2-[2-(difluoromethoxy)phenyl]ethynyl]-7-[(2R,3R,4S,5R)-3,4-dihydroxy-5-[(sulfamoylamino)methyl]tetrahydrofuran-2-yl]pyrrolo[2,3-d]pyrimidine] gave an IC50 of 0.027 µM.

With `Nc1ncnc2c1c(C#Cc1ccc3[nH]ncc3n1)cn2[C@@H]1O[C@H](CNS(N)(=O)=O)[C@@H](O)[C@H]1O` [Example 19, 4-Amino-7-[(2R,3R,4S,5R)-3,4-dihydroxy-5-[(sulfamoylamino)methyl]tetrahydrofuran-2-yl]-5-[2-(1H-pyrazolo[4,3-b]pyridin-5-yl)ethynyl]pyrrolo[2,3-d]pyrimidine] the IC50 was 0.028 µM.

For `Nc1ccc(C#Cc2cn([C@@H]3O[C@H](CNS(N)(=O)=O)[C@@H](O)[C@H]3O)c3ncnc(N)c23)c(F)c1` [Example 20, 4-Amino-5-[2-(4-amino-2-fluoro-phenyl)ethynyl]-7-[(2R,3R,4S,5R)-3,4-dihydroxy-5-[(sulfamoylamino)methyl]tetrahydrofuran-2-yl]pyrrolo[2,3-d]pyrimidine], the IC50 was 0.0091 µM.

`Nc1ncnc2c1c(C#CC1CCc3ccccc31)cn2[C@@H]1O[C@H](CNS(N)(=O)=O)[C@@H](O)[C@H]1O` (stereo partly drawn) [Example 21, 4-Amino-7-[(2R,3R,4S,5R)-3,4-dihydroxy-5-[(sulfamoylamino)methyl]tetrahydrofuran-2-yl]-5-(2-indan-1-ylethynyl)pyrrolo[2,3-d]pyrimidine] showed an IC50 of 0.015 µM.

`CCNc1cc(F)c(C#Cc2cn([C@@H]3O[C@H](CNS(N)(=O)=O)[C@@H](O)[C@H]3O)c3ncnc(N)c23)c(F)c1` [Example 26, 4-Amino-7-[(2R,3R,4S,5R)-3,4-dihydroxy-5-[(sulfamoylamino)methyl]tetrahydrofuran-2-yl]-5-[2-[4-(ethylamino)-2,6-difluoro-phenyl]ethynyl]pyrrolo[2,3-d]pyrimidine] gave an IC50 of 0.012 µM.

Molecule `Nc1ncnc2c1c(C#Cc1c(F)cc(N3CC[C@@H](O)C3)cc1F)cn2[C@@H]1O[C@H](CNS(N)(=O)=O)[C@@H](O)[C@H]1O` [Example 30, 4-Amino-5-[2-[2,6-difluoro-4-[(3R)-3-hydroxypyrrolidin-1-yl]phenyl]ethynyl]-7-[(2R,3R,4S,5R)-3,4-dihydroxy-5-[(sulfamoylamino)methyl]tetrahydrofuran-2-yl]pyrrolo[2,3-d]pyrimidine] has an IC50 of 0.027 µM.

Molecule `CCOc1cc(N2CCOCC2)cc(F)c1C#Cc1cn([C@@H]2O[C@H](CNS(N)(=O)=O)[C@@H](O)[C@H]2O)c2ncnc(N)c12` [Example 34, 4-[4-[2-[4-Amino-7-[(2R,3R,4S,5R)-3,4-dihydroxy-5-[(sulfamoylamino)methyl]tetrahydrofuran-2-yl]pyrrolo[2,3-d]pyrimidin-5-yl]ethynyl]-3-ethoxy-5-fluoro-phenyl]morpholine] has an IC50 of 0.024 µM.

`CCOc1cc(F)cc(F)c1C#Cc1cn([C@@H]2O[C@H](CNS(N)(=O)=O)[C@@H](O)[C@H]2O)c2ncnc(N)c12` [Example 35, 4-Amino-7-[(2R,3R,4S,5R)-3,4-dihydroxy-5-[(sulfamoylamino)methyl]tetrahydrofuran-2-yl]-5-[2-(2-ethoxy-4,6-difluoro-phenyl)ethynyl]pyrrolo[2,3-d]pyrimidine] gave an IC50 of 0.0041 µM.

Work on `Nc1ncnc2c1c(C#Cc1c(F)cc(N3CCSCC3)cc1F)cn2[C@@H]1O[C@H](CNS(N)(=O)=O)[C@@H](O)[C@H]1O` [Example 37, 4-[4-[2-[4-Amino-7-[(2R,3R,4S,5R)-3,4-dihydroxy-5-[(sulfamoylamino)methyl]tetrahydrofuran-2-yl]pyrrolo[2,3-d]pyrimidin-5-yl]ethynyl]-3,5-difluoro-phenyl]thiomorpholine] yielded an IC50 of 0.011 µM.

`Nc1ncnc2c1c(C#Cc1c(F)cc(N3CCCC(O)C3)cc1F)cn2[C@@H]1O[C@H](CNS(N)(=O)=O)[C@@H](O)[C@H]1O` (stereo partly drawn) [Example 38, 4-Amino-5-[2-[2,6-difluoro-4-(3-hydroxy-1-piperidyl)phenyl]ethynyl]-7-[(2R,3R,4S,5R)-3,4-dihydroxy-5-[(sulfamoylamino)methyl]tetrahydrofuran-2-yl]pyrrolo[2,3-d]pyrimidine] showed an IC50 of 0.0035 µM.

`Nc1ncnc2c1c(C#Cc1c(F)cc(N3CCC(=O)CC3)cc1F)cn2[C@@H]1O[C@H](CNS(N)(=O)=O)[C@@H](O)[C@H]1O` [Example 42, 4-Amino-5-[2-[2,6-difluoro-4-(4-oxo-1-piperidyl)phenyl]ethynyl]-7-[(2R,3R,4S,5R)-3,4-dihydroxy-5-[(sulfamoylamino)methyl]tetrahydrofuran-2-yl]pyrrolo[2,3-d]pyrimidine] gave an IC50 of 0.0043 µM.

Work on `Nc1ncnc2c1c(C#Cc1ccccn1)cn2[C@@H]1O[C@H](CNS(N)(=O)=O)[C@@H](O)[C@H]1O` [Example 44, 4-Amino-7-[(2R,3R,4S,5R)-3,4-dihydroxy-5-[(sulfamoylamino)methyl]tetrahydrofuran-2-yl]-5-[2-(2-pyridyl)ethynyl]pyrrolo[2,3-d]pyrimidine] yielded an IC50 of 0.029 µM.

With `N#Cc1ccccc1C#Cc1cn([C@@H]2O[C@H](CNS(N)(=O)=O)[C@@H](O)[C@H]2O)c2ncnc(N)c12` [Example 49, 4-Amino-5-[2-(2-cyanophenyl)ethynyl]-7-[(2R,3R,4S,5R)-3,4-dihydroxy-5-[(sulfamoylamino)methyl]tetrahydrofuran-2-yl]pyrrolo[2,3-d]pyrimidine] the IC50 was 0.018 µM.

In the case of `COc1cccc(F)c1C#Cc1cn([C@@H]2O[C@H](CNS(N)(=O)=O)[C@@H](O)[C@H]2O)c2ncnc(N)c12` [Example 51, 4-Amino-7-[(2R,3R,4S,5R)-3,4-dihydroxy-5-[(sulfamoylamino)methyl]tetrahydrofuran-2-yl]-5-[2-(2-fluoro-6-methoxy-phenyl)ethynyl]pyrrolo[2,3-d]pyrimidine], the IC50 is reported as 0.0035 µM.

`Nc1ncnc2c1c(C#Cc1c(F)cc(O)cc1F)cn2[C@@H]1O[C@H](CNS(N)(=O)=O)[C@@H](O)[C@H]1O` [Example 54, 4-Amino-5-[2-(2,6-difluoro-4-hydroxy-phenyl)ethynyl]-7-[(2R,3R,4S,5R)-3,4-dihydroxy-5-[(sulfamoylamino)methyl]tetrahydrofuran-2-yl]pyrrolo[2,3-d]pyrimidine] was tested, and the IC50 was 0.0045 µM.

With `CC(C)Oc1cccc(F)c1C#Cc1cn([C@@H]2O[C@H](CNS(N)(=O)=O)[C@@H](O)[C@H]2O)c2ncnc(N)c12` [Example 56, 4-Amino-7-[(2R,3R,4S,5R)-3,4-dihydroxy-5-[(sulfamoylamino)methyl]tetrahydrofuran-2-yl]-5-[2-(2-fluoro-6-isopropoxy-phenyl)ethynyl]pyrrolo[2,3-d]pyrimidine] the IC50 was 0.0053 µM.

`N#Cc1cc(F)c(C#Cc2cn([C@@H]3O[C@H](CNS(N)(=O)=O)[C@@H](O)[C@H]3O)c3ncnc(N)c23)c(F)c1` [Example 57, 4-Amino-5-[2-(4-cyano-2,6-difluoro-phenyl)ethynyl]-7-[(2R,3R,4S,5R)-3,4-dihydroxy-5-[(sulfamoylamino)methyl]tetrahydrofuran-2-yl]pyrrolo[2,3-d]pyrimidine] showed an IC50 of 0.0058 µM.

With `CSc1cccc(F)c1C#Cc1cn([C@@H]2O[C@H](CNS(N)(=O)=O)[C@@H](O)[C@H]2O)c2ncnc(N)c12` [Example 59, 4-Amino-7-[(2R,3R,4S,5R)-3,4-dihydroxy-5-[(sulfamoylamino)methyl]tetrahydrofuran-2-yl]-5-[2-(2-fluoro-6-methylsulfanyl-phenyl)ethynyl]pyrrolo[2,3-d]pyrimidine] the IC50 was 0.0085 µM.

`Nc1ncnc2c1c(C#Cc1c(F)cccc1OCC(F)(F)F)cn2[C@@H]1O[C@H](CNS(N)(=O)=O)[C@@H](O)[C@H]1O` [Example 61, 4-Amino-7-[(2R,3R,4S,5R)-3,4-dihydroxy-5-[(sulfamoylamino)methyl]tetrahydrofuran-2-yl]-5-[2-[2-fluoro-6-(2,2,2-trifluoroethoxy)phenyl]ethynyl]pyrrolo[2,3-d]pyrimidine] was tested, and the IC50 was 0.0038 µM.

`CCOc1cccc(OC)c1C#Cc1cn([C@@H]2O[C@H](CNS(N)(=O)=O)[C@@H](O)[C@H]2O)c2ncnc(N)c12` [Example 62, 4-Amino-7-[(2R,3R,4S,5R)-3,4-dihydroxy-5-[(sulfamoylamino)methyl]tetrahydrofuran-2-yl]-5-[2-(2-ethoxy-6-methoxy-phenyl)ethynyl]pyrrolo[2,3-d]pyrimidine] gave an IC50 of 0.016 µM.

`COc1ccc2cccnc2c1C#Cc1cn([C@@H]2O[C@H](CNS(N)(=O)=O)[C@@H](O)[C@H]2O)c2ncnc(N)c12` [Example 63, 8-[2-[4-Amino-7-[(2R,3R,4S,5R)-3,4-dihydroxy-5-[(sulfamoylamino)methyl]tetrahydrofuran-2-yl]pyrrolo[2,3-d]pyrimidin-5-yl]ethynyl]-7-methoxyquinoline] gave an IC50 of 0.011 µM.
